Columns and labels:
[1] = xn = mol fraction of the nth substance listed; conditions: 100 kPa, Liquid, Vibrating tube method, x2 = 0
[2] = for surface tension liquid-gas: pt plate; for electrical conductivity / viscosity / mass density: 100 kPa, Liquid; for electrical conductivity: Alternating current cell with electrodes; for viscosity: Falling or rolling sphere viscometry; for mass density: Vibrating tube method

CC#N [acetonitrile] + C[n+]1ccn(CCCC#N)c1.F[B-](F)(F)F
[1]
Conditions | mass density [kg/m3]
288.15 K | 787.33
293.15 K | 781.96
298.15 K | 776.61
303.15 K | 771.18
308.15 K | 765.73
313.15 K | 760.25
318.15 K | 754.72
323.15 K | 749.16

C[n+]1ccn(CCCC#N)c1.F[B-](F)(F)F [1-butyronitrile-3-methylimidazolium tetrafluoroborate]
[2]
Conditions | electrical conductivity [S/m] | mass density [kg/m3] | surface tension liquid-gas [mN/m] | viscosity [mPa·s]
288.15 K | 0.058 | 1316.07 | 49.1 | 590.6
293.15 K | 0.085 | 1312.33 | 48.7 | 417.9
298.15 K | 0.123 | 1308.61 | 48.4 | 302.6
303.15 K | 0.171 | 1304.81 | 48.1 | 223.3
308.15 K | 0.231 | 1301.05 | 47.7 | 169.9
313.15 K | 0.305 | 1297.32 | 47.4 | 128.7
318.15 K | 0.393 | 1293.59 | 47.1 | 100.6
323.15 K | 0.498 | 1289.86 | 46.8 | 79.82

CC#N [acetonitrile]
[2]
Conditions | mass density [kg/m3]
288.15 K | 787.33
293.15 K | 781.96
298.15 K | 776.61
303.15 K | 771.18
308.15 K | 765.73
313.15 K | 760.25
318.15 K | 754.72
323.15 K | 749.16

Source: the NIST ThermoML archive (doi:10.1021/acs.jced.7b00898)
